“Also recorded” adds a separate entry of the source. Read-outs that look alike come from different tables or passages of the source.
Legend:
[1] = test system: adult S. japonicum; test: microbe, parasite or virus in culture; type: cell-based; settings: for killing at 25 µM / killing at 50 µM / killing at 100 µM / mortality at 25 µM: Schistosoma japonicum; for mortality at 25 µM: read-out: Mortality of adult worms
Source text: ICR mice (20–22 g), were obtained from the Shanghai Sub-Center of Experimental Animals, Chinese Academy of Sciences. They were maintained at the Department of Experimental Animals, Jiangsu Institute of Parasitic Diseases. To infect each mouse, its abdominal skin was exposed to 50 S. japonica cercariae. All of the mice were executed to collect S. japonica adult worms, through portal vein perfusion, 35 days post-infection. The adult S. japonica collected were washed with RPMI 1640 medium and then kept in RPMI 1640 medium (pH 7.5) with HEPES 20 mM, penicillin (100 IU/mL), streptomycin ([…]) and 10 % fetal bovine serum. Then, two pairs of adult worms were transferred into each well of a 24-well culture plate, with 2 mL of the same medium. The worms were cultured at 37 °C in a humid atmosphere with 5 % CO2.
Adult worms were cultured in a 24-well culture plate for 30–60 min at 37 °C, in a humid atmosphere with 5 % CO2. Then, oxadiazole-2-oxides at different concentrations (10, 25, 50, 100 μM) were added. Equal volumes of RPMI 1640 or DMSO were applied as negative controls, while PZQ was applied as a positive control. The adult worm mobility and parasite survival rates were monitored using an inverted phase contrast microscope, at 24, 48 and 72 h. Parasite death was defined as there being no motor activity during 2 min of continuous observation, and morphological and tegumental alterations. All assays were repeated three times.
^b Data collected by visual examination of worm movement and shape; n.e. […] The data presented are the average of three independent experiments.

[2] = target: T1, recombinant SjTGR (Schistosoma japonicum, UniProt B5THG7); test: Inhibition of TrxR activity of recombinant SjTGR (DTNB assay); type: biochemical; settings: 50 nM SjTGR, 1 mM NADPH, 15 min preincubation, DTNB reduction; for IC50: read-out: IC50 of SjTGR
T1 sequence (B5THG7 1-596): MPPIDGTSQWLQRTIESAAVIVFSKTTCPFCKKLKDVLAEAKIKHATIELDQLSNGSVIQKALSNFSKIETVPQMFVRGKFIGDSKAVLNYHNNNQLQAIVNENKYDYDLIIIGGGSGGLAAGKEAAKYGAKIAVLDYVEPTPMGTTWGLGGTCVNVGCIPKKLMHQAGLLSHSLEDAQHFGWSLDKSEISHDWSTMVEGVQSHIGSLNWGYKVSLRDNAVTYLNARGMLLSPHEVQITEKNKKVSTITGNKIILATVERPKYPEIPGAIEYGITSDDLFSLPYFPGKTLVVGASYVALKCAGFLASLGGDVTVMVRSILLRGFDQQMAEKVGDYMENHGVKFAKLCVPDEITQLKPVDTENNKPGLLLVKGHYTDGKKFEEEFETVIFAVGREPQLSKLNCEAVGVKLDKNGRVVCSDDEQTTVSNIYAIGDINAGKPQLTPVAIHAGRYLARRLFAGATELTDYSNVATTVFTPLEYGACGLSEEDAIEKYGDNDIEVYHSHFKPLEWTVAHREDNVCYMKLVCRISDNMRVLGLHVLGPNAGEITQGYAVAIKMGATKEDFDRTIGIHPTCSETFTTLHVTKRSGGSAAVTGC
Description: The purified recombinant SjTGR proteins were produced according to the method described by Song et al.. The inhibition of TrxR activity by the recombinant SjTGR was performed as reported by Rai et al.. Briefly, 50 nM SjTGR and 1 mM NADPH were incubated with different concentrations of oxadiazole-2-oxides (2, 4, 6, 10, 20 μM) for 15 min at room temperature. Then, potassium phosphate buffer (pH 7.4) containing 10 mM EDTA, 100 μM NADPH, and 3 mM DTNB was added to start the reaction. The increase of absorbance at 412 nm was monitored during the first 2 min. All assays were done in triplicate.
50 nM SjTGR and 1 mM NADPH were incubated with different concentrations of oxadiazole-2-oxides (2, 4, 6, 10, 20 μM) for 15 min at room temperature. Then, potassium phosphate buffer (pH 7.4) containing 10 mM EDTA, 100 μM NADPH, 3 mM DTNB was added to start the reaction. The increase in absorbance at 412 nm was monitored during the first 2 min. All assays were done in triplicate. Results shown are the mean ± SD (n = 3)

[3] = test system: juvenile S. japonicum; test: microbe, parasite or virus in culture; type: cell-based
Description: Infected Oncomelania hupensis, provided by the Department of Snail Biology, Jiangsu Institute of Parasitic Diseases, were incubated at 25–28 °C, under illumination, for 2 h to hatch S. japonicum cercariae. The cercariae were collected from the water surface with clean cover glass and placed into a centrifuge tube using pre cooled RPMI 1640. Centrifugation was performed for 1 min at 1500 rpm, and then the steps above were repeated. After centrifugation, the supernatant solution was removed. The cercariae at the bottom were washed twice and resuspended with RPMI 1640. Approximately 20–30 cercariae (1 mL of the resuspension medium) were added to one well in a 24-well culture plate. They were incubated overnight at 37 °C with 5 % CO2. The survival rates and number of tails shed were observed under an inverted microscope. Cercariae that had shed their tails were used as juvenile S. japonicum.
20–30 juvenile worms were transferred into each well of a 24-well culture plate, containing 2 mL RPMI 1640 medium, 20 mM HEPES, 100 IU/mL penicillin, […] streptomycin and 10 % fetal bovine serum. Then, oxadiazole-2-oxides (2, 5, 10, and 50 μM), diluted with the RPMI 1640 medium, were added to their allocated wells. The worms in the negative control wells were treated with equal volumes of RPMI 1640 or DMSO and worms treated with AS were observed as positive controls. The juvenile worms’ survival rates were observed under an inverted phase contrast microscope (Leica, Wetzlar, Germany) at 24, 48 and 72 h. Parasite death was defined as an unclear internal structure of the juvenile worms, with incomplete tegument and contents overflowing radially, or unclear internal structure with complete tegument, but having no motor activity during 1 min of continuous observation. All assays were repeated three times.
^b Data collected by visual examination of worm movement and shape; % D = The number of worms dead / The total number of worms observed, and worms dead judged by unclear internal structure of juvenile worms with uncompleted tegument, and contents overflowing radially, or unclear internal structure with complete tegument, but having no motor activity during 1 min of continuous observation. The data presented are the average of three independent experiments.

[4] = 24 h, read-out: Killing activity 24hr
[5] = 48 h, read-out: Killing activity 48hr
[6] = 72 h, read-out: Killing activity 72hr
[7] = Schistosoma japonicum, 24 h, read-out: Killing activity 24hr
[8] = Schistosoma japonicum, 48 h, read-out: Killing activity 48hr
[9] = Schistosoma japonicum, 72 h, read-out: Killing activity 72hr

In the case of `CC(C)CCOc1ccc(-c2no[n+]([O-])c2C#N)cc1` [Compound 18], the killing at 25 µM [1, 4] is reported as 75%, the killing at 50 µM [1, 4] is reported as 100% and the killing at 100 µM [1, 4] is reported as 100%. The mortality at 25 µM ([1]; 24 h) was over 75%, the killing at 25 µM [1, 5] was 87.5% and the killing at 50 µM [1, 5] was 100%. For the same compound, the killing at 100 µM [1, 5] was 100%, the killing at 25 µM [1, 6] was 100% and the killing at 50 µM [1, 6] was 100%. For the same compound, the killing at 100 µM [1, 6] was 100%, the mortality at 25 µM ([1]; 72 h) was 100% and the “Killing activity 24hr” value ([1]; adult worms, 10 μM, 24 h) was 16.7%D. For the same compound, the “Killing activity 48hr” value ([1]; adult worms, 10 μM, 48 h) was 16.7%D, the “Killing activity 72hr” value ([1]; adult worms, 10 μM, 72 h) was 50.0%D and the “IC50 of SjTGR” value [2] was “did not inhibit SjTGR”. It also gave an IC50 [2] of over 20 µM, a killing at 2 µM [3, 7] of 24.1% and a killing at 5 µM [3, 7] of 33.8%. The killing at 50 µM [3, 7] was 52.4%, the killing at 2 µM [3, 8] was 29.9% and the killing at 5 µM [3, 8] was 40%. For the same compound, the killing at 50 µM [3, 8] was 88.1%, the killing at 2 µM [3, 9] was 35.6% and the killing at 5 µM [3, 9] was 47.5%. For the same compound, the killing at 50 µM [3, 9] was 100%, the “Killing activity 24hr” value ([3]; juvenile worms, 10 μM, 24 h) was 36.6%D and the “Killing activity 48hr” value ([3]; juvenile worms, 10 μM, 48 h) was 42.7%D. The “Killing activity 72hr” value ([3]; juvenile worms, 10 μM, 72 h) was 42.7%D.
With `N#Cc1c(-c2ccc(OCCCOc3ccc(-c4no[n+]([O-])c4C#N)cc3)cc2)no[n+]1[O-]` [Compound 21] the “Killing activity 24hr” value ([1]; adult worms, 10 μM, 24 h) was “n.e”, the “Killing activity 48hr” value ([1]; adult worms, 10 μM, 48 h) was “sluggish” and the “Killing activity 72hr” value ([1]; adult worms, 10 μM, 72 h) was “sluggish”. The “Killing activity 24hr” value ([1]; adult worms, 25 μM, 24 h) was “n.e”, the “Killing activity 48hr” value ([1]; adult worms, 25 μM, 48 h) was 100%D and the “Killing activity 72hr” value ([1]; adult worms, 25 μM, 72 h) was 100%D. For the same compound, the “Killing activity 24hr” value ([1]; adult worms, 50 μM, 24 h) was 66.7%D, the “Killing activity 48hr” value ([1]; adult worms, 50 μM, 48 h) was 100%D and the “Killing activity 72hr” value ([1]; adult worms, 50 μM, 72 h) was 100%D. For the same compound, the “Killing activity 24hr” value ([1]; adult worms, 100 μM, 24 h) was 75.0%D, the “Killing activity 48hr” value ([1]; adult worms, 100 μM, 48 h) was 100%D and the “Killing activity 72hr” value ([1]; adult worms, 100 μM, 72 h) was 100%D. For the same compound, the “IC50 of SjTGR” value [2] was “did not inhibit SjTGR; also recorded: neither did they inhibit the SjTGR activity”, the IC50 [2] was over 20 µM and the “Killing activity 24hr” value ([3]; juvenile worms, 2 μM, 24 h) was 22.5%D. The “Killing activity 48hr” value ([3]; juvenile worms, 2 μM, 48 h) was 22.5%D, the “Killing activity 72hr” value ([3]; juvenile worms, 2 μM, 72 h) was 27.5%D and the “Killing activity 24hr” value ([3]; juvenile worms, 5 μM, 24 h) was 26.7%D. For the same compound, the “Killing activity 48hr” value ([3]; juvenile worms, 5 μM, 48 h) was 26.7%D, the “Killing activity 72hr” value ([3]; juvenile worms, 5 μM, 72 h) was 30.0%D and the “Killing activity 24hr” value ([3]; juvenile worms, 10 μM, 24 h) was 30.0%D. The “Killing activity 48hr” value ([3]; juvenile worms, 10 μM, 48 h) was 33.3%D, the “Killing activity 72hr” value ([3]; juvenile worms, 10 μM, 72 h) was 56.7%D and the “Killing activity 24hr” value ([3]; juvenile worms, 50 μM, 24 h) was 33.3%D. For the same compound, the “Killing activity 48hr” value ([3]; juvenile worms, 50 μM, 48 h) was 38.3%D and the “Killing activity 72hr” value ([3]; juvenile worms, 50 μM, 72 h) was 67.0%D.
`N#Cc1c(-c2ccc(CBr)cc2)no[n+]1[O-]` [Compound 22] was tested, and the mortality at 25 µM ([1]; 24 h) was over 75%, the killing at 25 µM ([1]; adult worms, 25 μM, 24 h, read-out: Killing activity 24hr) was 90% and the killing at 25 µM ([1]; adult worms, 25 μM, 48 h, read-out: Killing activity 48hr) was 100%. For the same compound, the killing at 25 µM ([1]; adult worms, 25 μM, 72 h, read-out: Killing activity 72hr) was 100%, the killing at 50 µM ([1]; adult worms, 50 μM, 24 h, read-out: Killing activity 24hr) was 90.9% and the killing at 50 µM ([1]; adult worms, 50 μM, 48 h, read-out: Killing activity 48hr) was 100%. The killing at 50 µM ([1]; adult worms, 50 μM, 72 h, read-out: Killing activity 72hr) was 100%, the killing at 100 µM ([1]; adult worms, 100 μM, 24 h, read-out: Killing activity 24hr) was 100% and the killing at 100 µM ([1]; adult worms, 100 μM, 48 h, read-out: Killing activity 48hr) was 100%. For the same compound, the killing at 100 µM ([1]; adult worms, 100 μM, 72 h, read-out: Killing activity 72hr) was 100%, the “Killing activity 24hr” value ([1]; adult worms, 10 μM, 24 h) was 44.4%D and the “Killing activity 48hr” value ([1]; adult worms, 10 μM, 48 h) was 66.7%D. For the same compound, the “Killing activity 72hr” value ([1]; adult worms, 10 μM, 72 h) was 88.9%D, the IC50 [2] was 9.7 µM and the mortality at 50 µM ([3]; Schistosoma japonicum, 24 h, read-out: Mortality of juvenile worms) was over 70%. The killing at 2 µM ([3]; Schistosoma japonicum, juvenile worms, 2 μM, 24 h, read-out: Killing activity 24hr) was 18.1%, the killing at 2 µM ([3]; Schistosoma japonicum, juvenile worms, 2 μM, 48 h, read-out: Killing activity 48hr) was 30.1% and the killing at 2 µM ([3]; Schistosoma japonicum, juvenile worms, 2 μM, 72 h, read-out: Killing activity 72hr) was 41%. It also gave a killing at 5 µM ([3]; Schistosoma japonicum, juvenile worms, 5 μM, 24 h, read-out: Killing activity 24hr) of 18.6%, a killing at 5 µM ([3]; Schistosoma japonicum, juvenile worms, 5 μM, 48 h, read-out: Killing activity 48hr) of 30.2% and a killing at 5 µM ([3]; Schistosoma japonicum, juvenile worms, 5 μM, 72 h, read-out: Killing activity 72hr) of 41.8%. For the same compound, the killing at 50 µM ([3]; Schistosoma japonicum, juvenile worms, 50 μM, 24 h, read-out: Killing activity 24hr) was 100%, the killing at 50 µM ([3]; Schistosoma japonicum, juvenile worms, 50 μM, 48 h, read-out: Killing activity 48hr) was 100% and the killing at 50 µM ([3]; Schistosoma japonicum, juvenile worms, 50 μM, 72 h, read-out: Killing activity 72hr) was 100%. For the same compound, the “Killing activity 48hr” value ([3]; juvenile worms, 10 μM, 48 h) was 41.4%D and the “Killing activity 72hr” value ([3]; juvenile worms, 10 μM, 72 h) was 69.0%D.

Reference: paper PMC4721062, “Oxadiazole-2-oxides may have other functional targets, in addition to SjTGR, through which they cause mortality in Schistosoma japonicum” (Parasites & Vectors, 2016)
